Columns and labels:
[1] = ClpB immunization in mice: body weight, food intake and feeding pattern (BioDAQ cages); format: in vivo
Method: All experimental protocols were conducted according to US National Institutes of Health guidelines and EU directives, and animal experiments were approved by the Institutional Ethical Committees. Two-month-old male C57BI6 mice (Janvier Laboratories, L'Arbresle, France) were acclimated to the animal facility for 1 week with 12 h light-dark cycle, lights on at 0700 hours and were kept in standard mouse-holding cages (n=8) each. Mice were fed ad libitum with standard pelleted rodent chow (RM1 diet, SDS, UK) with drinking water always available and were manipulated daily by gentle holding and measuring body weight. During acclimatization, mice were distributed between four cages to obtain the similar mean body weight per mouse per cage. After 1 week of acclimatization, mice from each cage were assigned to one of four study group and received following treatments: (i) Group 1, ClpB immunization (n=8): ClpB protein (Delphi Genetics, Gosselies, Belgium) 50 μg per mouse in 200 μl of 1:1 (vol:vol) of PBS with Complete Freund's Adjuvant (Sigma, St Louis, Mo., USA), intraperitoneally (i.p.); (ii) Group 2, adjuvant injection controls (n=8): 200 μl of Complete Freund's Adjuvant in PBS (1:1 (vol:vol), i.p.); (iii) Group 3, PBS injection controls (n=8): 200 μl of PBS (i.p.); and (iv) Group 4, intact controls (n=8): received no injections, and then all mice were returned to their holding cages. Fifteen days later, mice were given a boost immunization and the following treatments: (i) Group 1 (n=8), ClpB protein (Delphi Genetics) 50 μg per mouse in 200 μl of 1:1 (vol:vol) of PBS with Incomplete Freund's Adjuvant (Sigma) i.p.; (ii) Group 2 (n=8): 200 μl of Incomplete Freund's Adjuvant in PBS (1:1 (vol:vol), i.p.); (iii) Group 3, (n=8): 200 μl of PBS (i.p.); and iv) Group 4, (n=8): received no injections. Next day after the boost, mice were placed individually into the BioDAQ mouse cages (Research Diets, Inc., New Brunswick, N.J., USA) each equipped with an automatic feeding monitor. Food (Serlab, Montataire France) and drinking water were available ad libitum and body weight was measured daily. After 3 days of acclimatization to the BioDAQ cages, mice received the following treatments: Groups 1, 2 and 3 (each n=8), that is, mice that have been immunized with ClpB, injected with adjuvants and with PBS, respectively, all received an acute injection of α-MSH peptide (Bachem AG), 100 μg·kg^−1 body weight in 100 μl of PBS (i.p.) at 1000 hours. The control mice (n=8) received PBS only (i.p.). Feeding data was continuously monitored and analyzed using the BioDAQ data viewer 2.3.07 (Research Diets). For the meal pattern analysis, the inter-meal interval was set at 300 s.

[2] = Locomotor activity and anxiety tests (open field, elevated O-maze) in immunized mice; format: in vivo
Method: After the feeding study, mice were placed in individual mouse-holding cages with food and water available ad libitum, and were analyzed for locomotor activity and anxiety in 0-maze (Med Associate, Inc., St Albans, Vt., USA) tests performed during 2 consecutive days. Two hours after the 0-maze test, mice were killed by decapitation in a guillotine and trunk blood was collected into EDTA-containing tubes. Plasma was separated by centrifugation at 3500 r.p.m. ([…]) for 10 min at 4° C. and stored at −80° C. before assay.
After feeding study in the BioDAQ cages, mice were analyzed for locomotor activity using a Versamax Animal Activity Monitor (AccuScan Instruments, Inc., Columbus, Ohio, USA). Next day after the locomotor activity test, all mice were tested for their anxiety in an elevated O-maze. The elevated-O-maze is a variation of more commonly used elevated plusmaze pharmacologically validated for anxiety testing in rodents. The advantage of the O-maze is that it lacks the ambiguous central square of the traditional plus-maze. The O-maze consisted of a circular infrared platform (outer diameter 120 cm) elevated 80 cm above the floor, featuring two open and two closed segments made of gray plastic. The closed segments were enclosed by walls extending 20 cm above the surface of the maze and covered with a black infrared plexiglas lid. Each test started by placing the mouse into one of the two closed segments. The test lasted 5 min and was recorded using a video camera placed above the O-maze and the EthoVision video tracking software (Noldus IT, Wageningen, The Netherlands). Measurements of distance and time spent in the open and closed segments were analyzed. Between each mouse tests, the 0-maze was cleaned with 30% ethanol.

[3] = target: T1, adrenocorticotropic hormone (Homo sapiens, UniProt P01189); test: ELISA of plasma IgG reacting with adrenocorticotropic hormone; format: in vivo; conditions: ClpB immunization study
T1 construct: purchased Bachem AG
T1 sequence (P01189 138-176 limits assumed): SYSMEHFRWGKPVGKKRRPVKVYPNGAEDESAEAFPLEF
Description: (§1) Each determination was done in duplicate.

α-MSH [4] = target: T2, α-MSH (Homo sapiens, UniProt P01189); test: ELISA of plasma auto-antibodies reacting with α-MSH; format: in vivo
T2 construct: endogenous peptide hormone of the melanocortin family, with a tridecapeptide structure; purchased Bachem AG
Description: as §1

ClpB protein [5] = target: T3, ClpB protein (Escherichia coli, UniProt P63284); conditions: ClpB-immunized mice
Method: (§2) IgG purification and affinity assay were performed according to a published protocol (Legrand et al., Protoc Exch 2014, doi:10.1038/protex2014.004). Extraction of plasma globulins was done by plasma acidification and separation on C18 SEP column (Phoenix Pharmaceuticals, Burlingame, Calif., USA), then 500 μl of mouse plasma was mixed with 500 μl of buffer A (1% trifluoroacetic acid in water). The column was activated in 1 ml of buffer B (60% acetonitrile in 1% trifluoroacetic acid) by 3 min centrifugation with 700 r.p.m. and rinsed three times with 3 ml of buffer A. Diluted plasma (1:1 in buffer A) was added to the column and the effluent (1 ml) was saved (frozen at −20° C.) for further purification of IgG. Total IgG were purified from the effluents of mouse plasma samples using the Melon Gel Kit (Thermo Fisher Scientific, Rockford, Ill., USA). Plasma effluents diluted 1:4 in kit's purification buffer was added on washed melon gel deposited in a column. Column was spun 1 min at 6000 r.p.m., and the IgG containing effluent was saved and frozen at −20° C. before lyophilization. […]
(§3) Between injections of each sample, the binding surface was regenerated with 10 mM NaOH, resulting in the same baseline level of the sensorgram. The affinity kinetic data were analyzed using BiaEvaluation 4.1.1 program (GE Healthcare). […]

α-MSH [6] = target: T2, α-MSH; test: Affinity kinetics assay (surface plasmon resonance, BIAcore) of mouse IgG for α-MSH; format: binding; conditions: ClpB-immunized mice compared with controls
Method: as §2, §3

anti-α-MSH IgG = conditions: 20 and 10 μg of ClpB
Method: Following 2D-PAGE, E. coli cytoplasmic proteins were transferred onto Hybond-ECL PVDF membrane (GE Healthcare) via a dry transfer method (Trans Blot Cell, Bio-Rad, USA) and a constant current of 0.8 mA.cm^−2 of the membrane size for 2 h. After transfer, membranes were blocked with 5% (wt:vol) milk (Regilait, France) in phosphate-buffered saline (PBS; 10 mmol·l^−1 […], and 150 mM·l^−1 NaCl) plus 0.05% (vol:vol) Tween 20.

ClpB protein [7] = target: T3, ClpB protein; conditions: in vivo
Method: Plates were washed (5 min for three times) in PBS with 0.05% Tween 200, pH 7.4, and then incubated overnight at 4° C. with 100 μl of mouse plasma diluted 1:200 in PBS to determine free auto-Ab levels or diluted 1:200 in dissociative 3M NaCl and 1.5M glycine buffer, pH 8.9, to determine total auto-Ab levels. The plates were washed (three times) and incubated with 100 μl of alkaline phosphatase (AP)-conjugated goat antimouse IgG (1:2000) or anti-mouse IgM (1:1000), all obtained from Jackson ImmunoResearch Laboratories, Inc. (West Grove, Pa., USA). Following washing (three times), 100 μl of p-nitrophenyl phosphate solution (Sigma) was added as AP substrate. After 40 min of incubation at room temperature, the reaction was stopped by adding 3 N NaOH. The optical density was determined at 405 nm using a microplate reader Metertech 960 (Metertech Inc., Taipei, Taiwan). Blank optical density values resulting from the reading of plates without addition of plasma samples were subtracted from the sample optical density values. Each determination was done in duplicate.
IgG and IgM antibodies reactive with ClpB were detected by enzyme-linked immunosorbent assay using corresponding anti-mouse or anti-human AP-conjugated antibodies (Jackson ImmunoResearch Laboratories, Inc.) as described above.

[8] = ClpB-immunized mice, last 10 days
[9] = ClpB-immunized mice, α-MSH 100 μg/kg i.p.
[10] = open field, between study groups

T3 sequence (P63284 whole entry): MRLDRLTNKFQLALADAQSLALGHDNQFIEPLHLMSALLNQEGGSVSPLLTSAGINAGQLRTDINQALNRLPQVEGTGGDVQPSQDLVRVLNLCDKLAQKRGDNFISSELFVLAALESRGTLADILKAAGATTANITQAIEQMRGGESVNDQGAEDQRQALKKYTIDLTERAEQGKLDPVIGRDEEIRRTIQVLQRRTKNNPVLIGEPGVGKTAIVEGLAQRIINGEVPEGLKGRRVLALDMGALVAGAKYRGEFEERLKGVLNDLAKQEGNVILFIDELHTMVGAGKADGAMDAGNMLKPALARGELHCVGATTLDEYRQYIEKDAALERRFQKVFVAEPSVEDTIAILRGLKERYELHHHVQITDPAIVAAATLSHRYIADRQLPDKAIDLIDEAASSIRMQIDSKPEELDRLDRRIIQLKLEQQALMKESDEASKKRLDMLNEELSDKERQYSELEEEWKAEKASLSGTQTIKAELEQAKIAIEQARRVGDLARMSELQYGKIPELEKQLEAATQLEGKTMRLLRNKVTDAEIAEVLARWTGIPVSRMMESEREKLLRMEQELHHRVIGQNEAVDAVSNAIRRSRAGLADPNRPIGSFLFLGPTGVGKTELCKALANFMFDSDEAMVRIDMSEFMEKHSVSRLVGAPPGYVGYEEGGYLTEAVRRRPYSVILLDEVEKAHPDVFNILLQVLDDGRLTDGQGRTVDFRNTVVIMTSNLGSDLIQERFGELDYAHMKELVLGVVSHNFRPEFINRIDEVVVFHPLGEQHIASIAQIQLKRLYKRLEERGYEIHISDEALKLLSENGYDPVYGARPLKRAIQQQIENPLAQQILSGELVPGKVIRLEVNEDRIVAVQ

## ClpB: chaperone protein ClpB from E. Coli K12, SEQ ID NO: 1, 857 amino acids; recombinant protein (Delphi Genetics) used for immunization
[1]; ClpB 50 μg per mouse i.p. together with adjuvant, C57Bl6 mice
  body weight for a few days after injections: lower
[1]; ClpB-immunized mice, 4 weeks later
  body weight vs controls: +5%
[1]; [8]
  meal number: did not change
  meal size: increased
[1]; ClpB-immunized mice, last 10 days of the experiment
  mean daily food intake as compared with other groups: +13%
[1]; [9]
  24 h food intake following i.p. injection of α-MSH: not affected
  body weight following i.p. injection of α-MSH: not affected
[2]; ClpB-immunized mice compared with all other groups
  time spent in the closed arms of the O-maze: less time
[2]; ClpB-immunized mice compared with controls
  distance moved in the closed arms of the O-maze: shorter distance
[2]; [10]
  time spent in the open vs border areas: did not significantly differ
  total locomotor activity: did not significantly differ
[3]
  plasma adrenocorticotropic hormone-reactive IgG: No significant differences
α-MSH [4]; ClpB immunization study, between the groups
  plasma levels of α-MSH IgM auto-Abs: did not significantly differ
α-MSH [4]; ClpB-immunized mice
  plasma levels of α-MSH-reactive IgG: Increased
ClpB protein [5]
  affinity of anti-ClpB IgG: lower affinities
α-MSH [6]
  affinity of α-MSH-reactive IgG for α-MSH: lower affinities
anti-α-MSH IgG
  Western blot revealed with anti-α-MSH IgG: showed a 96-kDa band
ClpB protein [7]
  plasma anti-ClpB IgG levels: strong increase
  plasma levels of anti-ClpB IgG after adsorption with α-MSH: significantly reduced

Reference: patent publication US10729770B2, “Bacterial influence on regulation of appetite via ClpB protein mimicry of alpha-MSH” (priority 2013, dated 2020)
